Consider 1 compound from US8105798B2, “Cytoplasmic activity of retinoid X receptor and its regulation by ligands and dimerization” (The Burnham Institute, priority 2003, dated 2012).

Experiment [1] deals with RARβ expression. Kind of experiment: RARβ protein expression by Western analysis in cancer cells. Format: cell-based. To be noted: sulindac sulfide 100 μM, 24 hr.
Experimental: The indicated cancer cells were treated for 24 h with or without trans-RA (10^-6 M), or 15d-PGJ2 (5.micro.M) or their combination. RARβ protein expression was determined by Western analysis.
The effect of sulindac sulfide on RXR transactivation was investigated for its effect of RARβ induction by all-trans-retinoic acid (tRA), which activates the RA response element (βRARE) in the RARβ promoter through an RAR/RXR heterodimer. […] The βRARE could be also activated by an RXR/PPAR heterodimer. […] Cells were treated for 24 hr with or without with trans-RA (10^-6 M), or SR11237 (10^-6 M), ciglitazone (10.micro.M), sulindac sulfide (100.micro.M) or the indicated combinations. RARβ protein expression was determined by Western analysis.
For experiment [2], the target named is T1, RXRα/IKK interaction (Homo sapiens, UniProt P19793).
T1 construct: expressed in transfected cells; host or cells: HEK293T, pcDNA3 expression vectors
T1 sequence (Q9Y6K9 whole entry partner, one chain of several): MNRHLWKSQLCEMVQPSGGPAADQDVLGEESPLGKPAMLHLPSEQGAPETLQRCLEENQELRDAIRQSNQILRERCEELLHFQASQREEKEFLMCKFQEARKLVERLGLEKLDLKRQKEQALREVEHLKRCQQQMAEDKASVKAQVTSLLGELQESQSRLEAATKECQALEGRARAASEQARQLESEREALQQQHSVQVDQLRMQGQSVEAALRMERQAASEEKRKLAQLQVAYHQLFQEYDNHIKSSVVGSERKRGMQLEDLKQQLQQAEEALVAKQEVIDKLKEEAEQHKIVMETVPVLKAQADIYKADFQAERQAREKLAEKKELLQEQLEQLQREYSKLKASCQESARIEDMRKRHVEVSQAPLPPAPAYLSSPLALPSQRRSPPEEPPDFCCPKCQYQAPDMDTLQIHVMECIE
T1 sequence (O14920 whole entry partner, one chain of several): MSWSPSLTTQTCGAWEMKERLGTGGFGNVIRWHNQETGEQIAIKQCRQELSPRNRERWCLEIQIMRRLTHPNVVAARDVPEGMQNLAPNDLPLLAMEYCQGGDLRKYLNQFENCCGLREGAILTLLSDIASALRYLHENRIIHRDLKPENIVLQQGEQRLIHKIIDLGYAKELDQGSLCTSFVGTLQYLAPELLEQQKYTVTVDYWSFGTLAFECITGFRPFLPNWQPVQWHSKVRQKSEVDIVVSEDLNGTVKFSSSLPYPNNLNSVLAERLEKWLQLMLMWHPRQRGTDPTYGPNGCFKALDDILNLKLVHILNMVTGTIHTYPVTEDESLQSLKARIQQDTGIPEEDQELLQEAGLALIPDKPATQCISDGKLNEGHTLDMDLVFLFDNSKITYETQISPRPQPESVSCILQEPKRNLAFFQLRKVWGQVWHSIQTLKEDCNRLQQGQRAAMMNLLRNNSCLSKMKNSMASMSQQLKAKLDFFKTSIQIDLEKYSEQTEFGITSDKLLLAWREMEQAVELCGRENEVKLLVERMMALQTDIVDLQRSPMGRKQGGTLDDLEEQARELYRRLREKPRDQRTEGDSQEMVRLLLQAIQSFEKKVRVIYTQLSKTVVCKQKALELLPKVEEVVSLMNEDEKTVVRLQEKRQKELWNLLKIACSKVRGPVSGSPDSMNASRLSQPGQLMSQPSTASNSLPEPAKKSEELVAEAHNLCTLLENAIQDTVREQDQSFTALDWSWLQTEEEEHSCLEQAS
Briefly: co-immunoprecipitation assay of RXRα with IKK. The experiment is classed as cell-based. The conditions noted are these: 6 hr. From the text: IKK is composed of three subunits: IKKα and IKKβ, the catalytic subunits, and IKKγ, a regulatory subunit. IKK activation is required for NF-kB activation through its phosphorylation and degradation of IkB in response to proinflammatory stimuli. In addition, IKK also regulates cellular processes in a NF-kB-independent manner. We examined whether sulindac sulfide-induced cytoplasmic RXRα could interact with IKK. The indicated expression vector (pcDNA3 from Invitrogen, Corp) was transfected into HEK293T cells alone or together. After transfection, cells were treated with sulindac sulfide (75.micro.M) for 6 hr, and the interaction of RXRα and IKKβ was analyzed by co-immunoprecipitation assay. […] (FIG. 17a). The interaction was also illustrated by their cytoplasmic co-localization in cells treated with sulindac sulfide. (FIG. 17b). […] In this example, H460 cells were treated with or without sulindac sulfide (75.micro.M) for 6 hr, and cells were stained for RXRα and IKKβ (FIG. 17c). […] HA-IKKγ and Flag-RXRα expression vectors were transfected into HEK293T cells alone or together. After transfection, cells were treated with a new retinoid (BI419 (10^-6 M), 15d-PGJ2 (5.micro.M), or sulindac sulfide (75.micro.M) for 6 hr. The interaction of RXRα and IKKγ was studied by co-immunoprecipitation assay.

Experiment [3] concerns the target T2, RXRα (Homo sapiens, UniProt P19793).
T2 sequence (P19793 1-462): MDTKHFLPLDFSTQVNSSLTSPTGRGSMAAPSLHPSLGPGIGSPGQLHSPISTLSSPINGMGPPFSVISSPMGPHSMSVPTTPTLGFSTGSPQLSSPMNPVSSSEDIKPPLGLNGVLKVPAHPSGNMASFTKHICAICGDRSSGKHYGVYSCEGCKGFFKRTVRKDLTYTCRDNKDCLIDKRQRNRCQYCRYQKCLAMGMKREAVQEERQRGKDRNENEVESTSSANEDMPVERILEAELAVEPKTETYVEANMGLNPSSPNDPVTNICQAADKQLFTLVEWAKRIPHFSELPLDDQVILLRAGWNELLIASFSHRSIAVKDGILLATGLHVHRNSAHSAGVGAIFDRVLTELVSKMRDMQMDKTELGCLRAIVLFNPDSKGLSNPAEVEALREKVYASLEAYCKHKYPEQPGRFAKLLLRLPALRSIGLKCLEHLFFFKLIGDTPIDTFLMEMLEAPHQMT
Kind of experiment: subcellular localization of RXRα by immunostaining / confocal microscopy. The experiment is classed as cell-based. On the procedure: Expression vector for Flag-RXRα was transfected into the indicated cell line. Cells were then treated with 15d-PGJ2 (5.micro.M) for 3 hr, then immunostained with anti-Flag antibody to detect RXRα Flag-RXRα was visualized by confocal microscopy.
Expression vectors for Flag-RXRα and GFP-TR3 were transfected into PC12 cells alone or together. Cells were then treated with 15d-PGJ2 (5.micro.M) for 3 hr, then immunostained with anti-Flag antibody to detect RXRα Flag-RXRα and GFP-TR3 were visualized by confocal microscopy, and their images merged.
Cos7 cells were transfected with GFP-RXRα and Mito-REP, and treated with or without 10^-4 M indomethacin or diclofenac for 4 hours. The distribution of GFP-RXRα and Mito-REP was visualized by confocal microscopy.
For example, cells such as LNCaP prostate cancer cells are induced to apoptosis using agents such as the phorbol ester, TPA (12-0-tetradecanolphorbol 13-acetate, Cell Signaling Technology Cat. No.: 9905).
For example, heat shock protein 60 (Hsp60) is a mitochondrial specific protein. […] The treated cells are then incubated with a conjugated secondary antibody and visualized using confocal microscopy. In this example, Cy-3 or FITC conjugated secondary antibodies were used for visualizing the sub-cellular localization of RXRα or Hsp60, respectively.
A GFP-RXRα expression vector was transfected into COS-7 cells and GFP-RXRα was expressed.
A fusion protein created by combining GFP and amino acids 348-398 of RXRα, is transfected into HEK293T cells.
To determine the role of 15d-PGJ2 binding on the new RXR pathway, a confocal microscopy analysis was performed to determine subcellular localization of RXRα in the presence or absence of 15d-PGJ2.
Because RXR heterodimerizes with TR3, Inventor examined the effect of 15d-PGJ2 on TR3 subcellular localization in PC12 phaeochromocytoma cells.
To determine the mechanism of RXRα mediated apoptosis in the presence of sulindac sulfide, Inventors examined the effect of sulindac sulfide on subcellular localization of RXRα

Experiment [4] concerns the target T3, RXR.alpha (Homo sapiens, UniProt P19793).
T3 sequence (P19793 1-462): T2 sequence (P19793 1-462)
Kind of experiment: isothermal titration calorimetry (ITC). To be noted: data not shown. The experiment is classed as binding. On the procedure:
ITC is a thermodynamic technique for monitoring the binding reaction of two components. When a protein binds a ligand, heat is either generated or absorbed, and quantitation of this heat allows very accurate determination of the binding dissociation constant (kD), reaction stoichiometry (n), enthalpy and entropy. Heat effects a small as 0.2.micro.cal can be measured and titrations can be done on as little as 1 ml of a dilute solution. (See generally, Pierce, M. M., Raman, C. S., and Nall, B. T., Methods, (1999) 19: 213-21)

Each structure is given as a SMILES string.

Regarding `CSc1ccc(/C=C2/C(C)=C(CC(=O)O)c3cc(F)ccc32)cc1` [sulindac sulfide], the “inducing effect of tRA on RARβ” value in experiment [1] (ZR-75-1 and Calu-6 cells, trans-RA 10^-6 M) was “effectively suppressed”. Moreover, the “activation of RXR/PPAR heterodimer by SR11237 and ciglitazone (RARβ expression)” value in experiment [1] (SR11237 10^-6 M, ciglitazone 10 μM) is “effectively inhibited”. Further, the “interaction of RXRα with IKKγ” value in experiment [2] (HEK293T cells, HA-IKKγ and Flag-RXRα, BI419 10^-6 M, 15d-PGJ2 5 μM, sulindac sulfide 75 μM) was “further promoted”. For the same compound, in experiment [2] (transfected HEK293T cells, 75 μM), the “interaction between RXRα and IKKβ” value is “extensive interaction”. Further, the “endogenous RXRα localization” value in experiment [3] (Calu-6, H460, LNCaP, ZR-75-1, MGC80-3 and HEK293T cells, 75 μM, 6 hr) was “found mainly in the cytoplasm”. Moreover, the RXRα mitochondrial localization result in experiment [3] (H460, MGC80-3 and LNCaP cells, 75 μM, 6 hr) is “results in RXRα mitochondrial localization”. For the same compound, the “transfected RXRα localization” value in experiment [3] (HEK293T cells, sulindac sulfide) is recorded as “found in the cytoplasm”. Further, in experiment [4], the “binding to RXR.alpha by ITC” value is reported as “confirmed the binding”.
